“Also recorded” adds a separate entry of the source.
What was measured:
[1] = system: CT26 (Colorectal carcinoma cells); experiment: CT26 colorectal carcinoma model, intratumoural 5-FU / Lithium Chloride; type: in vivo, mice; details: intratumoural thrice weekly; Lithium Chloride 200 mg/kg; 5-FU 20 mg/kg
Description: For routine tumour induction, 1×10^6 CT26 (Colorectal carcinoma cells) suspended in 200 μl of serum free DMEM were injected subcutaneously into the right flank of adult female Balb/c mice, after anaesthesia. Mice were randomly divided into experimental groups. Mice were treated at a tumour volume of approximately 60 mm^3 in volume (5-7 mm major diameter). All treatments were delivered in 50 μl volumes, administered directly into the tumour, thrice weekly with PBS (Control), Lithium Chloride (200 mg/kg), 5-FU (20 mg/kg) and a combination of both Lithium and 5-FU (200 mg/kg, 20 mg/kg). Following drug treatment, tumours were monitored by alternate day measurements in two dimensions, using Verniers Calipers. Tumor volumes were calculated according to the formula V=ab^2/6, where ‘a’ is the longest diameter of the tumor and ‘b’ is the longest diameter perpendicular to diameter ‘a’. Animals were culled when tumour volumes exceeded ˜500 mm^3 (no greater than 15 mm in diameter). […] Treatment of these animals was maintained until day 58, following which all treatments ceased.

[2] = system: active caspase-3 in OE21 cells; experiment: Active caspase-3 by flow cytometry; type: cell-based, human
Description: (§1) To examine control and 5-Fluorouracil treated cells for evidence of caspase activity cells were processed by trypsinization, 48 hours after treatment. […] This was detected with an anti rabbit FITC conjugated secondary antibody, and samples were analyzed by FACScan at 530 nm (FL-1). Percentages indicate the proportion of cells with active caspase-3, detected as an increase in the number of FITC (FL-1) labelled cells.

[3] = system: active caspase-3 in KYSE450 cells; experiment: Active caspase-3 by flow cytometry; type: cell-based, human; details: 48 hours after treatment, range of concentrations
Description: as §1

[4] = system: active caspase-3 in OE19 cells; experiment: Active caspase-3 by flow cytometry; type: cell-based, human; details: 48 hours after treatment
Description: as §1

[5] = system: active caspase-3 in OE33 cells; experiment: Active caspase-3 by flow cytometry; type: cell-based, human; details: 48 hours after treatment
Description: as §1

OE33 [6] = experiment: Mitochondrial depolarization, JC-1 probe; type: cell-based, human; details: 48 hour treatment
Description: (§2) Mitochondrial membrane potential was determined using the JC-1 probe (Molecular Probes). In non-apoptotic cells, JC1 accumulates as aggregates in the mitochondria, which stain red (FL2; 590 nm). At the onset of apoptosis, a loss of mitochondrial membrane potential (ΔΨm) releases the aggregated JC1, returning it to its monomeric form, which stains the cytosol green (FL1; 530 nm). Therefore, fluorescence of the JC-1 probe in the FL-2 channel decreases as mitochondrial membrane integrity is lost, while the fluorescence in FL-1 channel increases. Cells were incubated in JC1 (7.5 μg/ml) at 37° C. for 15 mins, and washed prior to analysis by flow cytometry (FACScan, Becton Dickinson). Percentages denote the proportion of cells with depolarised mitochondria following 48 hour incubation with 5-Fluorouracil and represent at least three independent experiments.

OE21 [7] = experiment: Mitochondrial depolarization, JC-1 probe; type: cell-based, human; details: 48 hour treatment
Description: as §2

KYSE450 [8] = experiment: Mitochondrial depolarization, JC-1 probe; type: cell-based, human; details: 48 hour treatment
Description: as §2

OE19 [9] = experiment: Mitochondrial depolarization, JC-1 probe; type: cell-based, human; details: 48 hour treatment
Description: as §2

LLC-Luc cells = experiment: FITC conjugated LC3 staining of LLC-Luc cells in vitro; type: cell-based; details: 5-FU in vitro, 24 and 48 hours
Source text: FITC conjugated LC3 (a known marker of autophagy), forms a green punctate staining pattern in the cytoplasm when it accumulates in forming autophagosomes.

OE21 [10] = experiment: Electron microscopy; type: cell-based, human; details: 5-FU (25 μM), 48 hours
Description: (§3) Cells were seeded on semi-porous membranes and incubated in 5-Fluoruracil (5-FU) for 48 hours. Cells were then fixed in a […] phosphate buffer (pH 7.4), containing 2.0% glutaraldehyde, at room temperature (RT) for 40 minutes. Cells were post-fixed in Osmium tetroxide (OsO4) at RT for 60 minutes, dehydrated in ascending grades of ethanol solutions (50%, 70%, 95%, 100% and 100% dry), prior to embedding in Araldite resin. Samples were subjected to a graded infiltration process with araldite (epoxy resin) before being set and sectioned. Representative areas were chosen for ultra-thin sectioning and samples were examined by electron microscopy.

OE19 [11] = experiment: Electron microscopy; type: cell-based, human; details: 5-FU (25 μM), 48 hours
Description: as §3

OE33 [12] = experiment: Monodansylcadaverine (MDC)-labelled vacuoles; type: cell-based, human; details: 25 μM
Description: (§4) MDC is an autofluorescent weak base that accumulates in acidic lysosomal vacuoles, showing high selectivity for autophagosomes, due to the high level of unhydrolyzed membrane lipids from engulfed organelles, which enhance MDC fluorescence. Cells were incubated with 0.1 mM MDC in PBS at 37° C. for 10 minutes (Biederbick et al., 1995), washed and immediately analyzed by fluorescent microscopy.

OE21 [13] = experiment: Monodansylcadaverine (MDC)-labelled vacuoles; type: cell-based, human; details: 25 μM
Description: as §4

KYSE450 [14] = experiment: Monodansylcadaverine (MDC)-labelled vacuoles; type: cell-based, human; details: 25 μM
Description: as §4

OE19 [15] = experiment: Monodansylcadaverine (MDC)-labelled vacuoles; type: cell-based, human; details: 25 μM
Description: as §4

OE21 [16] = system: OE21
Description: Morphological features of cells treated with 5-fluorouracil (5-FU)/cisplatin, without and with 3-MA, LY294002, Bafilomycin, Lithium chloride, rapamycin or HA14-I were examined by light microscopy. Morphologies of treated cells were examined 24 and 48 hours post treatment, treatment times are referred to in figure legends. Aliquots of vehicle control and drug treated cells were cytospun onto glass slides and stained with Rapi-Diff (Braidwood laboratories, UK). The extent of apoptotic and non-apoptotic cell death was determined by counting the cells in at least three fields of view per slide, with an average of ˜100 cells per field. Apoptotic cell death is characterized by the presence of two or more of the following morphological features: cell shrinkage, chromatin condensation, DNA degradation and fragmentation into ‘apoptotic bodies’, within an intact plasma membrane. Autophagic cell death was identified by clear elevation of cytoplasmic vesicles, loss of cytoplasmic material, pyknosis of the nuclear material and an intact nuclear membrane. Cytospin images are representative of at least three independent experiments.

[17] = system: CT26 (Colorectal carcinoma cells); experiment: CT26 colorectal carcinoma model, intratumoural Rapamycin / 5-FU; type: in vivo, mice; details: intratumoural thrice weekly; Rapamycin 0.6-2 mg/kg; 5-FU 20 mg/kg
Description: For routine tumour induction, 1×10^6 CT26 (Colorectal carcinoma cells) suspended in 200 μl of serum free DMEM are injected subcutaneously into the right flank of adult female Balb/c mice, after anaesthesia. Mice are randomly divided into experimental groups. Mice are treated at a tumour volume of approximately 60 mm^3 in volume (5-7 mm major diameter). […] Following drug treatment, tumours are monitored by alternate day measurements in two dimensions, using Verniers Calipers. Tumor volumes are calculated according to the formula V=ab^2/6, where ‘a’ is the longest diameter of the tumor and ‘b’ is the longest diameter perpendicular to diameter ‘a’. Animals are culled when tumour volumes exceed ˜500 mm^3 (no greater than 15 mm in diameter). […] Treatment of these animals is maintained until day 58, following which all treatments cease.

`O=c1[nH]cc(F)c(=O)[nH]1` [5-FU, 5-fluorouracil] was tested, and the “survival: day beyond which no animal of the group was alive / final animal euthanized” value [1] was 33 days, the “proportion of cells with active caspase-3” value ([2]; 5-FU (25 μM/50 μM), 48 hours) was 44% and the “active caspase-3” value ([2]; 48 hours after treatment) was “displayed active caspase-3”. The “active caspase-3” value [3] was “do not show caspase-3 activity; also recorded: fail to show any active caspase-3”, the “active caspase-3” value [4] was “do not show caspase-3 activity” and the “active caspase-3” value [5] was “displayed active caspase-3”. The “mitochondrial depolarization (JC-1)” value (OE33 [6]) was “mitochondrial depolarization”, the “mitochondrial depolarization (JC-1)” value (OE21 [7]) was “significant mitochondrial depolarization” and the “mitochondrial depolarization (JC-1)” value (KYSE450 [8]) was “do not show caspase-3 activity or mitochondrial membrane depolarization; also recorded: do not exhibit membrane depolarization”. The “mitochondrial depolarization (JC-1)” value (OE19 [9]) was “do not show caspase-3 activity or mitochondrial membrane depolarization”, the “autophagy (FITC conjugated LC3 punctate staining)” value (LLC-Luc cells) was “the extent of autophagy is greatly enhanced” and the “ultra structural features (electron microscopy)” value (OE21 [10]) was “morphological changes consistent with classical apoptotic cell death”. For the same compound, the “ultra structural features (electron microscopy)” value (OE19 [11]) was “numerous cytoplasmic vacuoles are evident”, the MDC staining pattern (OE33 [12]) was “MDC staining patterns are diffuse” and the MDC staining pattern (OE21 [13]) was “MDC staining patterns are diffuse”. The MDC staining pattern (KYSE450 [14]) was “accumulation of MDC (bright blue punctate staining) throughout the cytoplasm”, the MDC staining pattern (OE19 [15]) was “accumulation of MDC (bright blue punctate staining) throughout the cytoplasm” and the cell death morphology (OE21 [16]; 5-FU (50 μM) or cisplatin (40 μM), 48 hours) was “predominantly apoptotic cell death morphology”. For the same compound, the “autophagic cells as a minor population” value (OE21 [16]; 5-FU treated OE21 cells (FIG. 1c)) was 7% and the “survival: day beyond which no animal of the group is alive / final animal euthanized” value [17] was 33 days.

From US9155761B2, “Method for the treatment of cancer” (UNIVERSITY COLLEGE CORK, NATIONAL UNIVERSITY OF IRELAND, …, priority 2009, dated 2015)
